# Test results reported in ChEMBL document CHEMBL1201862, “PubChem BioAssay data set” (2004).
# The source made the active and inactive calls.
# Columns and labels:
# [1] = biological target: G-protein coupled receptor 55 (Homo sapiens, UniProt Q9Y2T6); test: GPR55 antagonists blocking LPI-driven arrestin recruitment, primary screen, imaging, U2OS, beta-arrestin-GFP, LPI agonist (AID 2013); format: functional;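 note: antagonist potency measured as reduced agonist-driven arrestin aggregation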
# [2] = biological target: DNA dC->dU-editing enzyme APOBEC-3A (Homo sapiens, UniProt P31941); test: APOBEC3A DNA deaminase inhibitors, dose response, biochemical (AID 504722); format: functional
# DNA dC->dU-editing enzyme APOBEC-3A, sequence (P31941 whole entry): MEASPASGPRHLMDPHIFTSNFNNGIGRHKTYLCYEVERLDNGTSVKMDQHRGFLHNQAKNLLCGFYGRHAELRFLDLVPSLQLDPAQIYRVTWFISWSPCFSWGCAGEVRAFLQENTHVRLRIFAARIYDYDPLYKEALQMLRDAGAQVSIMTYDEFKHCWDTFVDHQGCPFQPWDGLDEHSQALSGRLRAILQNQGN
# [3] = biological target: DNA dC->dU-editing enzyme APOBEC-3G (Homo sapiens, UniProt Q9HC16); test: Dose Response confirmation of small molecule APOBEC3G DNA Deaminase Inhibitors via a fluorescence-based single-stranded DNA deaminase assay. [Related pubchem assays (depositor defined):AID493012, AID493028]; format: functional
# DNA dC->dU-editing enzyme APOBEC-3G, sequence (Q9HC16 whole entry): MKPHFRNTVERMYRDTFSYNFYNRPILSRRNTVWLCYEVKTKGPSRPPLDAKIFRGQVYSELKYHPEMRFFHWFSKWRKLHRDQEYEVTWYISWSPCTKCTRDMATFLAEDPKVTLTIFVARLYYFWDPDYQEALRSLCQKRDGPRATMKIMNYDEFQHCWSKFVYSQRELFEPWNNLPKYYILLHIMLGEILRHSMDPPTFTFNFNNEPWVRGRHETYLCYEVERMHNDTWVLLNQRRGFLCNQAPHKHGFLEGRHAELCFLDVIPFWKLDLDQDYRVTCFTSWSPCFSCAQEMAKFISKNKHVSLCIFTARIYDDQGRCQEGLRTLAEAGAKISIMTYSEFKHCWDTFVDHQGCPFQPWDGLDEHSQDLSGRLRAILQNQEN
# [4] = biological target: T1, Rac GTPase-activating protein 1 (Homo sapiens, UniProt Q9H0H5); test: MgcRacGAP GTPase-activating activity inhibitors, confirmation, biochemical, ADP Hunter fluorescence, primary and confirmatory (AID 624330); format: functional
# T1 sequence (Q9H0H5 whole entry): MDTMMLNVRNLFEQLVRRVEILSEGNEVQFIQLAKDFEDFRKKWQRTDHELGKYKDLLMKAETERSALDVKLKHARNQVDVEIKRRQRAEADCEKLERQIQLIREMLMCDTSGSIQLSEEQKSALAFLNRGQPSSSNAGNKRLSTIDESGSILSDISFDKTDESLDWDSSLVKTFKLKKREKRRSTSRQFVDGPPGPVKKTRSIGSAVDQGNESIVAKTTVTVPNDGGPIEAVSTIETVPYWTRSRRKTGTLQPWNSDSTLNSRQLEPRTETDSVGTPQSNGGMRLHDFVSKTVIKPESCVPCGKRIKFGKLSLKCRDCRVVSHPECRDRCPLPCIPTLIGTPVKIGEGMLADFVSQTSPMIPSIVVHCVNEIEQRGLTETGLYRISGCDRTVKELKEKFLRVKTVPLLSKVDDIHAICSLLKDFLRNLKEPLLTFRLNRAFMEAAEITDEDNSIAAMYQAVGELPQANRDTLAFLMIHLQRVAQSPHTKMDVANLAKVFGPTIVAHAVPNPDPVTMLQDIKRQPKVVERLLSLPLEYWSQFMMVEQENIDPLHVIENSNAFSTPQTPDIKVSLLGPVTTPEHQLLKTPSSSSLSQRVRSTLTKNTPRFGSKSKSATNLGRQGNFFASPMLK
# [5] = biological target: T2, E3 ubiquitin-protein ligase XIAP (Homo sapiens, UniProt P98170); test: XIAP antagonists, biochemical, IAP family, fluorescence polarization (AID 1018); format: functional
# T2 sequence (P98170 whole entry): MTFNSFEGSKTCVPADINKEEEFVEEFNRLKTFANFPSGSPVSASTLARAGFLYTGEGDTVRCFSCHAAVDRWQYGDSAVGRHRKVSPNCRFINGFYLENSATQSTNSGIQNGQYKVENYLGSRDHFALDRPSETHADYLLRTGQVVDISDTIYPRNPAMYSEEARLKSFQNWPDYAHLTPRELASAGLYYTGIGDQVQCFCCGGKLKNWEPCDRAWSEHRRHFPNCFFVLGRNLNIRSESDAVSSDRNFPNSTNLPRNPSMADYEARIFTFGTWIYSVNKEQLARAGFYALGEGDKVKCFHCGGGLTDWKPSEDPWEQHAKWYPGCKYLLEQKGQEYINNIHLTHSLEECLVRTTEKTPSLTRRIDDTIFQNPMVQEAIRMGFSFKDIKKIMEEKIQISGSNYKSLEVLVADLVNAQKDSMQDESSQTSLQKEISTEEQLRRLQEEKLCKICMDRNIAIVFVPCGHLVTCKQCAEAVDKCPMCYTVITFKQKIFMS
# [6] = biological target: T2, E3 ubiquitin-protein ligase XIAP; test: Counter Screen using XIAP-Bir3 for Chemical Antagonists of Bir1/2 domains of IAP-family anti-apoptotic proteins. [Related pubchem assays (depositor defined):AID1018, AID1449, AID1514, AID1638, AID1749, AID1750, AID488957, AID488963]
# Caspase-6 = biological target: T3, Caspase-6 (Homo sapiens, UniProt P55212); test: human caspase-6 inhibitors, dose response, biochemical, VEID-R110 fluorescence, cherry-pick (AID 720632)
# T3 sequence (P55212 whole entry): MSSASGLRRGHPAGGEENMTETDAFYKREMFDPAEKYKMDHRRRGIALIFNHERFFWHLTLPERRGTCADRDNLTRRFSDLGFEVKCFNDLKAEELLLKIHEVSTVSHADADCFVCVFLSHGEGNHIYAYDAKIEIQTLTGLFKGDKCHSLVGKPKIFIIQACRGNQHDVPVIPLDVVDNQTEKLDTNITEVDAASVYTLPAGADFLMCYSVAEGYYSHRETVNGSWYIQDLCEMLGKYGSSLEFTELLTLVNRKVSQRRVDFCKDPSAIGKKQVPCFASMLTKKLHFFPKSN
# [7] = biological target: T4, Zinc finger protein mex-5 (Caenorhabditis elegans, UniProt Q9XUB2); test: MEX-5/TCR-2 RNA interaction inhibitors, dose response, biochemical, C. elegans, fluorescence polarization (AID 1960)
# T4 sequence (Q9XUB2 whole entry): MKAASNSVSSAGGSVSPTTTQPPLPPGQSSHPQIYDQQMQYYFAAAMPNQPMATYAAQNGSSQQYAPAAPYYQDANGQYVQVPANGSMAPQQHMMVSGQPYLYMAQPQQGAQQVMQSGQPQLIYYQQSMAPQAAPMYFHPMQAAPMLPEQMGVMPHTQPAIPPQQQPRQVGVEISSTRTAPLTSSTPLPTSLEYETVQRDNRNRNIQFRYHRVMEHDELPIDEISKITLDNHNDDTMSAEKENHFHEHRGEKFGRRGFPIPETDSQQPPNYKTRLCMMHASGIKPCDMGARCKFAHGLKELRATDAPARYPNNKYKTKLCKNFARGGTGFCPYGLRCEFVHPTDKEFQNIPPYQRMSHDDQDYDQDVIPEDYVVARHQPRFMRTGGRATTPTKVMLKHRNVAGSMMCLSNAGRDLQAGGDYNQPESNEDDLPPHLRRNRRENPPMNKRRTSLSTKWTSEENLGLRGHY
# [8] = biological target: Eukaryotic translation initiation factor 4E (Mus musculus, UniProt P63073); test: eIF4E–eIF4G protein interaction inhibitors, dose response, biochemical, TR-FRET (AID 855); format: functional;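 note: potency for disrupting eIF4E binding to eIF4GI seen as loss of FRET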
# Eukaryotic translation initiation factor 4E, sequence (P63073 whole entry): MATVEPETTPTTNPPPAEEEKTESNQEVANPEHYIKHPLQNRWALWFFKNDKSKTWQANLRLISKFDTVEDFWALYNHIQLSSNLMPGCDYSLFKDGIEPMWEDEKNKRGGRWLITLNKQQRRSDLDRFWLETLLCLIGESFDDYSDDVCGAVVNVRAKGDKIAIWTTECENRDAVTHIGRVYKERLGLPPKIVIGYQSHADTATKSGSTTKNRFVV
# SUMO-activating enzyme [9] = biological target: T5, SUMO-activating enzyme (Homo sapiens, UniProt Q9UBT2); test: inhibitors of in vitro SUMOylation cascade, primary screen, biochemical, HTRF, uHTS (AID 2006); format: protein-complex assay
# T5 sequence (Q9UBE0 whole entry, the tested form may be a part): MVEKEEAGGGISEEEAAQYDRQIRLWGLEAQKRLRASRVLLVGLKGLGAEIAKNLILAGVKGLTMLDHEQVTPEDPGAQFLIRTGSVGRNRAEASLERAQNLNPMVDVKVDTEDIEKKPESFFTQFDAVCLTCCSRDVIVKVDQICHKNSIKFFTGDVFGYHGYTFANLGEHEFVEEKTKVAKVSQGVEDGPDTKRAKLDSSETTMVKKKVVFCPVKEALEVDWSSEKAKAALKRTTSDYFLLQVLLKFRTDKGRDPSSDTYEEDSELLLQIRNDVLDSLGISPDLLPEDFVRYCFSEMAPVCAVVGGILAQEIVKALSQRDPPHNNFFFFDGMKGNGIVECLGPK
# T5 sequence (Q9UBT2 whole entry, the tested form may be a part): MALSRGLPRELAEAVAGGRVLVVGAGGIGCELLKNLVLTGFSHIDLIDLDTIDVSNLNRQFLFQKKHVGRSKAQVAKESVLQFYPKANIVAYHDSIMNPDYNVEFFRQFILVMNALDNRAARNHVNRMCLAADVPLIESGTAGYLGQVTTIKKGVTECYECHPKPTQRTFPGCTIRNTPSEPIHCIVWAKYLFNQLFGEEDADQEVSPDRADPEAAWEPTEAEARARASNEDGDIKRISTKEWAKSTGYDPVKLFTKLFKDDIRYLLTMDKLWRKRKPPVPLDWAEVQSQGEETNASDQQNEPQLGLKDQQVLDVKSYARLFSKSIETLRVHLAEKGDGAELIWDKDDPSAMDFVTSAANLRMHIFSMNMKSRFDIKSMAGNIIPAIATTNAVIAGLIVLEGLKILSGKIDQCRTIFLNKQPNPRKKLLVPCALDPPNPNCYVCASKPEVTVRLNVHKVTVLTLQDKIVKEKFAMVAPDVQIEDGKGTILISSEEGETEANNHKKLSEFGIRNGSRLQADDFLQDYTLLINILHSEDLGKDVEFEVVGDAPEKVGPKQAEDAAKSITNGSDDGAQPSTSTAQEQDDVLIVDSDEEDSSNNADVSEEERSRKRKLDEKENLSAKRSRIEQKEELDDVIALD
# [10] = biological target: T6, RNA-binding protein pos-1 (Caenorhabditis elegans, UniProt G5EF15); test: inhibitors of POS-1/mex-3 RNA binding, dose response, biochemical, fluorescence polarization (AID 1964);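 note: purified POS-1 fused to maltose binding protein made in E. coli; potency of compounds blocking POS-1 binding to fluorescent RNA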
# T6 sequence (G5EF15 whole entry): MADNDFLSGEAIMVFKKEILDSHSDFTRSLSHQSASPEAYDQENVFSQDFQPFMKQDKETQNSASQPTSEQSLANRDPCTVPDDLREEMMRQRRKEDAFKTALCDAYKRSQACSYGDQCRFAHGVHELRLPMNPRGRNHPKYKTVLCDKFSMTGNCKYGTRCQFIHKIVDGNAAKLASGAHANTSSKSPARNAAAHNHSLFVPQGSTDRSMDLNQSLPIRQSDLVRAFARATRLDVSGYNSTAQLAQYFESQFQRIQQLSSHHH
# SUMO-activating enzyme [11] = biological target: T5, SUMO-activating enzyme; test: SUMOylation inhibitor hit validation, confirmation, SUMOylation inhibitor project, biochemical, AlphaScreen (AID 2018); format: functional
# Leucine aminopeptidase = biological target: T7, Leucine aminopeptidase (Plasmodium falciparum 3D7, UniProt Q8IL11); test: P. falciparum M17LAP inhibitors, primary screen, biochemical, fluorogenic H-Leu-NHMec substrate, 1536-well (AID 1619); format: functional
# T7 sequence (Q8IL11 whole entry): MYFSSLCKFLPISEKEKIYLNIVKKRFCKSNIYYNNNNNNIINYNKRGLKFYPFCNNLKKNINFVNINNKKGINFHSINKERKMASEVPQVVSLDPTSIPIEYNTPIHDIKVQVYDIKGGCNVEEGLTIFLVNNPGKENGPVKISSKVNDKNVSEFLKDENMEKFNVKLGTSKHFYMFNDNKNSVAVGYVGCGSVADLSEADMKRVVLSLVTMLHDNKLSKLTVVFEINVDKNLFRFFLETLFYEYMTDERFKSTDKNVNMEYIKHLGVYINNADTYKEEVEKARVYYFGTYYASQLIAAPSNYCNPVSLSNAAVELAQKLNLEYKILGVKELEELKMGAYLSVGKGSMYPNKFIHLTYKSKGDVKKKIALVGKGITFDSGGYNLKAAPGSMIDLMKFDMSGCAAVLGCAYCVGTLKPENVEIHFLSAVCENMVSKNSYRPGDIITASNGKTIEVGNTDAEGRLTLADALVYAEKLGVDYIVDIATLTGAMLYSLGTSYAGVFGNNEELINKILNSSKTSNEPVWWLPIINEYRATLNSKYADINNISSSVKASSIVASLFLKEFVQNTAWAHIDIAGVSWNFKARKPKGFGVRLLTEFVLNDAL
# [12] = HeLa cell cytotoxicity, dose response, cytotoxicity control for MgcRacGAP inhibitor project (AID 624300); format: functional
# [13] = biological target: Glucose-6-phosphate 1-dehydrogenase (Homo sapiens, UniProt P11413); test: human G6PD enzyme inhibitors, dose response, selectivity assay for P. falciparum G6PD inhibitor project, biochemical, fluorescence (AID 504792); format: functional
# Glucose-6-phosphate 1-dehydrogenase, sequence (P11413 whole entry): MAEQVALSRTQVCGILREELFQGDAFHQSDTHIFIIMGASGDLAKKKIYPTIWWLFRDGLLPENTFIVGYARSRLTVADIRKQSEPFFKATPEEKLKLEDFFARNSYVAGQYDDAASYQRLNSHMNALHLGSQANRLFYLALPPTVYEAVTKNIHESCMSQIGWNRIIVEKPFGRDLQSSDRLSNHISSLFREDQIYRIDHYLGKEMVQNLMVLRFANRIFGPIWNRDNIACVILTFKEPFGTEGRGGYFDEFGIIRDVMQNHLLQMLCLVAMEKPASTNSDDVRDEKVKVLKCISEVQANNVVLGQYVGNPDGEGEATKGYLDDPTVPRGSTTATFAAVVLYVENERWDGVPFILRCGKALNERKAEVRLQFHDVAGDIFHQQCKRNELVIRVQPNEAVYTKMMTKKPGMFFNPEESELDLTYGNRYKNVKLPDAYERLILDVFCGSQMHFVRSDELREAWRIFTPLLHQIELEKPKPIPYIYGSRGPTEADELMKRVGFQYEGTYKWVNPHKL
# Hexokinase = biological target: T8, Hexokinase (Trypanosoma brucei, UniProt Q38C41); test: Confirmation assay for inhibitors of Trypanosoma brucei hexokinase 1-Analogue-first series. [Related pubchem assays (depositor defined):AID1430, AID1632, AID2516, AID2560, AID2579, AID2600, AID449725, AID492951]; format: functional
# T8 sequence (Q38C41 whole entry): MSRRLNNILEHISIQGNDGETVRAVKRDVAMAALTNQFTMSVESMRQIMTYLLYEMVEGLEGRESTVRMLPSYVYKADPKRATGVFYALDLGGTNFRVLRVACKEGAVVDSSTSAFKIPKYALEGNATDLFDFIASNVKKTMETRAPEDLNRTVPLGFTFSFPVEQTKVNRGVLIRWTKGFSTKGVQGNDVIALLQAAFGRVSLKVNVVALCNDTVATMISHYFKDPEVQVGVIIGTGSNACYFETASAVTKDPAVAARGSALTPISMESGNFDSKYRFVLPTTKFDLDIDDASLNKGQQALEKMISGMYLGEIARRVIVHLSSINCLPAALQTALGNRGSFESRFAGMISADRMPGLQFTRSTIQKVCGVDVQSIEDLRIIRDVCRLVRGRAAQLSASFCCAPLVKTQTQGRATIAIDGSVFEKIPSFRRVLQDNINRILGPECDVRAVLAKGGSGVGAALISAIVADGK
# Troponin, cardiac muscle = Troponin, cardiac muscle (Homo sapiens, UniProt P19429+P45379+P63316); test: Fluorescence-based biochemical high throughput dose response assay for activators of the calcium sensitivity of cardiac Regulated Thin Filaments (RTF). [Related pubchem assays (depositor defined):AID493008, AID493018, AID504382, AID504383]; format: protein-complex assay
# G-protein coupled receptor 55, sequence (Q9Y2T6 whole entry): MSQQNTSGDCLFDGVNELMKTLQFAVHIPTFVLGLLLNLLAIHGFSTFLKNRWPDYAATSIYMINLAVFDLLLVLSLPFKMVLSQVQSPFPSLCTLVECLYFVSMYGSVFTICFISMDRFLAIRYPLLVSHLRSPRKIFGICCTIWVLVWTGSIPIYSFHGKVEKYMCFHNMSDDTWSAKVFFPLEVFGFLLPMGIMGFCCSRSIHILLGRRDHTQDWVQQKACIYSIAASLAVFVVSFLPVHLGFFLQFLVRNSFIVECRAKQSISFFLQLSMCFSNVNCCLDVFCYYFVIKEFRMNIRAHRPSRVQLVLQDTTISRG
smiles,measurement,setting,value
NNC(=O)COc1ccc(-c2[nH]nc(C(F)(F)F)c2-c2ccc(Br)cc2)c(O)c1,IC50,[1],1.7 µM (active)
COCc1cc(C)c(C#N)c(S)n1,IC50,[2],> 100 µM (inactive)
same,IC50,[3],14.1 µM (active)
Sc1nnc(-c2ccncc2)n1/N=C/c1ccccc1,IC50,[2],> 100 µM (inactive)
same,IC50,[4],51.9 µM (active)
same,IC50,[3],2.52 µM (active)
Cc1cccc(OCc2nc(C#N)c(NCCN(C)C)o2)c1,IC50,[5],> 100 µM (not active)
same,IC50,[6],> 100 µM (inactive)
Cc1cc(/C=N/Nc2ccc([N+](=O)[O-])cn2)c(C)n1-c1ccc(C(=O)O)cc1,AC50,Caspase-6,5.03 µM (active)
same,EC50,[7],111 µM (active)
same,IC50,[8],50 µM (inactive)
same,IC50,SUMO-activating enzyme [9],29 µM (active)
same,EC50,[10],> 300 µM (not active)
same,IC50,SUMO-activating enzyme [11],6.16 µM (active)
same,IC50,Leucine aminopeptidase,12.7 µM (active)
O=C(Nc1ccccc1N1CCOCC1)c1cc(-c2ccncc2)nc2ccccc12,IC50,[1],4.89 µM (active)
Cc1ccc(-n2sc3cc(F)ccc3c2=O)c(C)c1,IC50,[4],35.8 µM (active)
same,CC50,[12],72.5 µM (active)
same,IC50,[13],9.17 µM (active)
same,IC50,Hexokinase,4.77 µM (active)
CC(/C=N/n1c(S)nnc1-c1cccnc1)=C\c1ccco1,IC50,[2],> 100 µM (inactive)
same,IC50,[3],1.93 µM (active)
Cc1cc(N2CCCC2)ccc1C=C(C#N)C#N,EC50,"Troponin, cardiac muscle",4.16 µM (active)
O=C(Cn1sc2ccccc2c1=O)Nc1ccc(I)cc1,IC50,Hexokinase,14.8 µM (active)
